This note sets out measurements from patent publication US6599901B1, “Pyridone substituted benzothiazole derivatives” (Hoffman-La Roche Inc., priority 2001, dated 2003).

Structures are written as SMILES.

One test deals with T1, human adenosine A2A receptor (Homo sapiens, UniProt P29274).
T1 construct: expressed in transfected cells; host or cells: CHO cells, semliki forest virus expression system
T1 sequence (P29274 whole entry): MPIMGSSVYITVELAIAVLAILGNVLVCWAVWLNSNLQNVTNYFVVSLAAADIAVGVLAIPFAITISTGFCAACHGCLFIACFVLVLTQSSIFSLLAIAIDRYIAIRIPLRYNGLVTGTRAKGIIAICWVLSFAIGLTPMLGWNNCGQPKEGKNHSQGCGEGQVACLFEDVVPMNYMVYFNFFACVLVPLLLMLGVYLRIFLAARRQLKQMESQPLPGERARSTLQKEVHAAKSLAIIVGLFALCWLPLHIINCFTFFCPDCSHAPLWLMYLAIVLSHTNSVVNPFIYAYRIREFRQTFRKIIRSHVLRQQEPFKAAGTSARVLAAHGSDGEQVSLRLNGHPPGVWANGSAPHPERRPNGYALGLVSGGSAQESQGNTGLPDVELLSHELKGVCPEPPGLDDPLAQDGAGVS
The test can be described thus: [3H]-SCH-58261 binding assay, human adenosine A2A receptor (CHO cell membranes, SPA). The following applies: recombinant human A2A receptor in CHO membranes; [3H]-SCH-58261 1 nM; Ki by Cheng-Prussoff; read-out: hA2 (pKi) (converted). On the procedure: (§1) The human adenosine A2A receptor was recombinantly expressed in chinese hamster ovary (CHO) cells using the semliki forest virus expression system. Cells were harvested, washed twice by centrifugation, homogenised and again washed by centrifugation. The final washed membrane pellet was suspended in a Tris (50 mM) buffer containing 120 mM NaCl, 5 mM KCl, 2 mM CaCl2 and 10 mM MgCl2 (pH 7.4) (buffer A). The [^3H]-SCH-58261 (Dionisotti et al., 1997, Br J Pharmacol 121, 353; 1 nM) binding assay was carried out in 96-well plates in the presence of 2.5 μM of membrane protein, 0.5 mg of Ysi-poly-1-lysine SPA beads and 0.1 U adenosine deaminase in a final volume of 200 μl of buffer A. Non-specific binding was defined using xanthine amine congener (XAC; 2 μM). Compounds were tested at 10 concentrations from 10 μM-0.3 nM. All assays were conducted in duplicate and repeated at least two times. Assay plates were incubated for 1 hour at room temperature before centrifugation and then bound ligand determined using a Packard Topcount scintillation counter. IC50 values were calculated using a non-linear curve fitting program and Ki values calculated using the Cheng-Prussoff equation.
As to `COc1ccc(N2CCOCC2)c2sc(NC(=O)c3ccn(Cc4ccccn4)c(=O)c3)nc12` [Example 4, 2-oxo-1-Pyridin-2-ylmethyl-1,2-dihydro-pyridine-4-carboxylic Acid (4-Methoxy-7-morpholin-4-yl-benzothiazol-2-yl)-amide], the Ki was 7.94 nM.
Still for that read-out and setting: with `COc1ccc(N2CCOCC2)c2sc(NC(=O)c3ccn(CC(=O)N4CCOCC4)c(=O)c3)nc12` [Example 5, 1-(2-Morpholin-4-yl-2-oxo-ethyl)-2-oxo-1,2-dihydro-pyridine-4-carboxylic Acid (4-Methoxy-7-morpholin-4-yl-benzothiazol-2-yl)-amide] the figure was 58.9 nM; with `CCC(=O)Cn1ccc(C(=O)Nc2nc3c(OC)ccc(N4CCOCC4)c3s2)cc1=O` [Example 3, 2-oxo-1-(2-oxo-Butyl)-1,2-dihydro-pyridine-4-carboxylic Acid (4-Methoxy-7-morpholin-4-yl-benzothiazol-2-yl)-amide], 5.75 nM.
On the same count and under the same terms, as for `CCOC(=O)Cn1ccc(C(=O)Nc2nc3c(OC)ccc(N4CCOCC4)c3s2)cc1=O` [Example 2, [4-(4-Methoxy-7-morpholin-4-yl-benzothiazol-2-ylcarbamoyl)-2-oxo-2H-pyridin-1-yl]-acetic Acid Ethyl Ester], the figure is 6.46 nM; as for `COc1ccc(N2CCOCC2)c2sc(NC(=O)c3ccn(Cc4ccccc4)c(=O)c3)nc12` [Example 1, 1-Benzyl-2-oxo-1,2-dihydro-pyridine-4-carboxylic Acid (4-Methoxy-7-morpholin-4-yl-benzothiazol-2-yl)-amide], 2.14 nM.
For `COc1ccc(N2CCOCC2)c2sc(NC(=O)c3ccn(CC(=O)N(C)C)c(=O)c3)nc12` [Example 6, 1-Dimethylcarbamoylmethyl-2-oxo-1,2-dihydro-pyridine-4-carboxylic Acid (4-Methoxy-7-morpholin-4-yl-benzothiazol-2-yl)-amide], the Ki is 50.1 nM.

The target of a further test is T2, human adenosine A1 receptor (Homo sapiens, UniProt P30542).
T2 construct: expressed in transfected cells; host or cells: CHO cells, semliki forest virus expression system
T2 sequence (P30542 1-326): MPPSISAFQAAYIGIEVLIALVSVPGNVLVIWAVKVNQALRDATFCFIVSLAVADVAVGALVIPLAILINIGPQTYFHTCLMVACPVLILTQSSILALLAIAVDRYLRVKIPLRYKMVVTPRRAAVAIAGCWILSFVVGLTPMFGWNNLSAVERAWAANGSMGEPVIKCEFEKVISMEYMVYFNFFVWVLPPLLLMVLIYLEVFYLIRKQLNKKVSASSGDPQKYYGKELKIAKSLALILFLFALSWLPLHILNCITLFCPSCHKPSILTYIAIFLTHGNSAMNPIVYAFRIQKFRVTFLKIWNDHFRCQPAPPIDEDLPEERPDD
In words: [3H]-DPCPX binding assay, human adenosine A1 receptor (CHO cell membranes, SPA). Conditions: recombinant human A1 receptor in CHO membranes; [3H]-DPCPX 0.6 nM; Ki by Cheng-Prussoff; read-out: hA1 (pKi) (converted). The method, then: as §1, with “adenosine A1” for “adenosine A2A”, “The [^3H]-DPCPX (([propyl-^3H]8-cyclopentyl-1,3-dipropyxanthine); 0.6” for “The [^3H]-SCH-58261 (Dionisotti et al., 1997, Br J Pharmacol 121, 353; 1”, “2.5 μg” for “2.5 μM”
As to `COc1ccc(N2CCOCC2)c2sc(NC(=O)c3ccn(Cc4ccccc4)c(=O)c3)nc12` [Example 1, 1-Benzyl-2-oxo-1,2-dihydro-pyridine-4-carboxylic Acid (4-Methoxy-7-morpholin-4-yl-benzothiazol-2-yl)-amide], the Ki is 1260 nM.
